In article PMC10892423 (Pharmaceutics, 2024):
Where two headings read alike, the source gives them in different places.

Experiments:
Format in all cases: biochemical
NDM-1 = target: T1, NDM-1 (Klebsiella pneumoniae, UniProt C7C422); test: β-lactamase inhibition, imipenem hydrolysis
T1 construct: purchased RayBiotech, Inc. 230-00554
Description: (§1) Recombinant AmpC from Escherichia coli was produced according to a previously reported protocol. KPC-2 and NDM-1 […] were purchased from LifeSpan Biosciences, Inc. (Lynnwood, WA, USA) (LS-G26598) and RayBiotech, Inc. (Peachtree Corners, GA, USA) (230-00554), respectively. Genes encoding OXA-48 (residues 23–265) and VIM-2 (residues 27–266) were custom-synthesized (Bioneer Inc., Seoul, Republic of Korea) and expressed as previously described. The β-lactamase inhibitory activity of the title compounds was then determined according to the previously reported methods. Briefly, equal volumes (100 μL) of the title compounds (70–0.1 μM in PBS) and diluted enzyme stock were mixed (final concentration 2% of DMSO in 200 μL) in 96-well plates, which were then incubated at 37 °C for 20 min. The incubated mixture was added to each well containing substrates (nitrocefin for AmpC, KPC-2, OXA-48, and VIM-2; and imipenem for NDM-1) of final concentrations of 70 μM for nitrocefin and 100 μM for imipenem. Substrate hydrolysis was monitored at 486 nm (nitrocefin) or 300 nm (imipenem) for 15 min, using a Cytation 5 imaging multimode reader (BioTek Instruments Inc., Winooski, VT, USA). At the plateau level of hydrolysis, the corresponding rates of hydrolysis were compared to those obtained without inhibitors (100%) to determine the percentage of enzyme inhibition at each concentration of the title compounds. The IC50 values of the compounds were derived from sigmoidal dose–response curves, using GraphPad Prism 5 (GraphPad Software, Boston, MA, USA).

OXA-48 = target: T2, OXA-48 (Klebsiella pneumoniae, UniProt Q6XEC0); test: β-lactamase inhibition, nitrocefin hydrolysis
T2 construct: Genes encoding OXA-48 (residues 23–265) and VIM-2 (residues 27–266) were custom-synthesized; made in house
Description: as §1

AmpC = target: T3, AmpC (Escherichia coli, UniProt P00811); test: β-lactamase inhibition, nitrocefin hydrolysis
T3 construct: made in house
Description: as §1

KPC-2 = target: T4, KPC-2 (Klebsiella pneumoniae, UniProt Q9F663); test: β-lactamase inhibition, nitrocefin hydrolysis
T4 construct: purchased LifeSpan Biosciences, Inc. LS-G26598
Description: as §1

VIM-2 = target: T5, VIM-2 (Escherichia coli, UniProt Q5U7L7); test: β-lactamase inhibition, nitrocefin hydrolysis
T5 construct: Genes encoding OXA-48 (residues 23–265) and VIM-2 (residues 27–266) were custom-synthesized; made in house
Description: as §1

[1] = imipenem substrate, read-out: β-Lactamases, IC50 NDM-1
[2] = nitrocefin substrate, read-out: β-Lactamases, IC50 OXA-48
[3] = nitrocefin substrate, read-out: β-Lactamases, IC50 KPC-2
[4] = nitrocefin substrate, read-out: β-Lactamases, IC50 VIM-2

T2 sequence (Q6XEC0 23-265 limits assumed): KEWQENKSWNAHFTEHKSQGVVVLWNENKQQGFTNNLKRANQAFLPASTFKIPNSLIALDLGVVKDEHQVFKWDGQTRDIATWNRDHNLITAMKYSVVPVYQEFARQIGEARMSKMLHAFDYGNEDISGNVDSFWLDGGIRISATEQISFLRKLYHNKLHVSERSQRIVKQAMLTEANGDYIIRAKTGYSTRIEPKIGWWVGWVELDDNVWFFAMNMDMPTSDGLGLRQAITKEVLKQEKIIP
T4 sequence (Q9F663 25-293, looked up): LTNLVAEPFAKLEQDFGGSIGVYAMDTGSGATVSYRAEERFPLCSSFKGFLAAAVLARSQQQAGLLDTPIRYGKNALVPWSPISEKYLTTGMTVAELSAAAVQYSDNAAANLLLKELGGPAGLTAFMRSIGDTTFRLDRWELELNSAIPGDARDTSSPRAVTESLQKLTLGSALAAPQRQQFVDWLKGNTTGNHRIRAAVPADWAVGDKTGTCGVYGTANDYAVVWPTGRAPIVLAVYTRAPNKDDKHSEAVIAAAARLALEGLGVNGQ
T3 sequence (P00811 20-377): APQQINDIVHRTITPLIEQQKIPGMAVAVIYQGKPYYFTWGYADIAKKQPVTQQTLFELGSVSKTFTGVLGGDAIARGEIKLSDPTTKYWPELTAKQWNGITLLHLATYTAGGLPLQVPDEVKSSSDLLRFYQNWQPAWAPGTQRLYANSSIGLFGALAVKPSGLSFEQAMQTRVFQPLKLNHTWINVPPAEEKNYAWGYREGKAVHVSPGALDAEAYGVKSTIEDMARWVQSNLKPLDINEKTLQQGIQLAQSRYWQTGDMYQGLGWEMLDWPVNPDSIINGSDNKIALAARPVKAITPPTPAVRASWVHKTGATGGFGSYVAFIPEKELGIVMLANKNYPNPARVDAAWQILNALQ
T1 sequence (C7C422 29-270, looked up, species assumed): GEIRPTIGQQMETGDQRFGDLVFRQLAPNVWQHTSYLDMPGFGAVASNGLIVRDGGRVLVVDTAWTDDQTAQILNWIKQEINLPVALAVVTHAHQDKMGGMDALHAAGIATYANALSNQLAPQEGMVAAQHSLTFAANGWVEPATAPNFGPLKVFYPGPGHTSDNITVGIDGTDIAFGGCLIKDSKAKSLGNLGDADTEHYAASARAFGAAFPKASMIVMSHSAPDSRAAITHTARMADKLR

SMILES	IC50 (NDM-1; [1])	IC50 (OXA-48; [2])	IC50 (AmpC)	IC50 (KPC-2; [3])	IC50 (VIM-2; [4])	IC50 (NDM-1)	IC50 (OXA-48)	IC50 (KPC-2)	IC50 (VIM-2)
CN1CCN(CCOc2c(-c3ccc(F)c(F)c3)oc3cc(O)cc(O)c3c2=O)CC1 [Compound 16]	> 50 µM	> 100 µM	> 50 µM	> 50 µM	> 100 µM	–	–	–	–
O=c1c(OCCCC2CCCC2)c(-c2ccc(F)c(F)c2)oc2cc(O)cc(O)c12 [Compound 29]	26.7 µM	5.5 µM	> 50 µM	28.3 µM	5.1 µM	–	–	–	–
O=c1c(OCC2CCCC2)c(-c2ccc(F)c(F)c2)oc2cc(O)cc(O)c12 [Compound 28]	21.8 µM	9.2 µM	> 50 µM	40.8 µM	7.8 µM	–	–	–	–
O=c1c(OCCN2CCNCC2)c(-c2ccc(F)c(F)c2)oc2cc(O)cc(O)c12 [Compound 17]	> 50 µM	> 100 µM	> 50 µM	> 50 µM	> 100 µM	–	–	–	–
O=c1c(OCCO)c(-c2ccc(F)c(F)c2)oc2cc(O)cc(O)c12 [Compound 8]	> 50 µM	> 100 µM	> 50 µM	> 50 µM	> 100 µM	–	–	–	–
CC(C)(C)CC(=O)Oc1c(-c2ccc(F)c(F)c2)oc2cc(O)cc(O)c2c1=O [Compound 3]	24.6 µM	21.2 µM	19.2 µM	22.2 µM	20.3 µM	–	–	–	–
O=c1c(OCCN2CCCCC2)c(-c2ccc(F)c(F)c2)oc2cc(O)cc(O)c12 [Compound 19]	> 50 µM	> 100 µM	> 50 µM	> 50 µM	> 100 µM	–	–	–	–
O=c1c(OCCN2CC2)c(-c2ccc(F)c(F)c2)oc2cc(O)cc(O)c12 [Compound 14]	–	–	> 50 µM	–	–	> 50 µM	> 100 µM	> 50 µM	> 100 µM
O=c1c(OCCC2CCNCC2)c(-c2ccc(F)c(F)c2)oc2cc(O)cc(O)c12 [Compound 31]	> 50 µM	> 100 µM	> 50 µM	> 50 µM	> 100 µM	–	–	–	–
